{"source": "patent US20090099029A1", "about": "“Methods and substrates for conducting assays” (Invitrogen Corporation, priority 2005, published 2009)", "experiment_in_all_cases": "Further analysis of a plurality of inhibitors and a plurality of kinases (Table 5 inhibition results)", "format_in_all_cases": "biochemical", "design_in_all_cases": "scale not given here", "key": {"kinases of Table 5 [1]": {"target": "kinases of Table 5 (Homo sapiens, UniProt Q9UIK4)", "sequence (Q9UIK4 whole entry)": "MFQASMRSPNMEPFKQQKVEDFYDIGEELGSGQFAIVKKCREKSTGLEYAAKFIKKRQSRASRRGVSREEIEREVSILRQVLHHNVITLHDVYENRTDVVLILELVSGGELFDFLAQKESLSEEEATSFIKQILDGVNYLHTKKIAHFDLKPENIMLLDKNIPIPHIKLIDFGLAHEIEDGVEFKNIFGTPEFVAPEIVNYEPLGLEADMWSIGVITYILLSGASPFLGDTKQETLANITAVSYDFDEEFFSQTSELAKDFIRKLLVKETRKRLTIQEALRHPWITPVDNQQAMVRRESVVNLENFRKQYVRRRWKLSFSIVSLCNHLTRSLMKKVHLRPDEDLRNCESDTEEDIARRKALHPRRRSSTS", "settings": "kinase DAPK2 (Part II, plate H3, Domain 1); inhibitor 100 uM", "text": "(§1) The wash solution is then discarded."}, "kinases of Table 5 [2]": {"target": "kinases of Table 5 (Homo sapiens, UniProt O75914)", "settings": "kinase PAK3 (Part II, plate D4, Domain 1); inhibitor 100 uM", "text": "as §1"}, "kinases of Table 5 [3]": {"target": "kinases of Table 5 (Homo sapiens, UniProt Q14289)", "settings": "kinase PTK2B (Part I, plate G5, Domain 1); inhibitor 100 uM", "text": "as §1"}, "kinases of Table 5 [4]": {"target": "kinases of Table 5 (Homo sapiens, UniProt P11309)", "sequence (P11309 whole entry)": "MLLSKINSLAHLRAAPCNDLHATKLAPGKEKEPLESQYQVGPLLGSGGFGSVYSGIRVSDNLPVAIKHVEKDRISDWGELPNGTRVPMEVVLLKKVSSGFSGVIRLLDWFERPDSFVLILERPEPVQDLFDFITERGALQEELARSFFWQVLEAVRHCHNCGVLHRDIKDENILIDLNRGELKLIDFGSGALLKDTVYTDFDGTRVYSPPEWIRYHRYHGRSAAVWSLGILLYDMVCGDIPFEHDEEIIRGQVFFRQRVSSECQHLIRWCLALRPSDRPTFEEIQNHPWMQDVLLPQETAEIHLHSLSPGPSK", "settings": "kinase PIM1 (Part I, plate C2, Domain 1); inhibitor 100 uM", "text": "as §1"}, "kinases of Table 5 [5]": {"target": "kinases of Table 5 (Homo sapiens, UniProt Q7KZI7)", "settings": "kinase MARK2 (Part I, plate C4, Domain 1); inhibitor 100 uM", "text": "as §1"}, "kinases of Table 5 [6]": {"target": "kinases of Table 5 (Homo sapiens, UniProt P68400)", "sequence (P68400 whole entry)": "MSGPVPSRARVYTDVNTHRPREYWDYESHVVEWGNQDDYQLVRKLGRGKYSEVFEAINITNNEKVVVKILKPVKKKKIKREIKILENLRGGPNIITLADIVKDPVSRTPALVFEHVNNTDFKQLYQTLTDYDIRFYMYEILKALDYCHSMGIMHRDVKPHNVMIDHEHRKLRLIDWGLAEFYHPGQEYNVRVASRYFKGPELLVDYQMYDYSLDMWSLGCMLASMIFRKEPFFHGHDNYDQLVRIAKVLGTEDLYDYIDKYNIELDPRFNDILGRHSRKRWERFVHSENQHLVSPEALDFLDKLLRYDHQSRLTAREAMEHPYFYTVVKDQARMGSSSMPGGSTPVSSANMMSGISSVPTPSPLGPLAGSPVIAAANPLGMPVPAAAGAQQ", "settings": "kinase CSNK2A1 (Part II, plate D9, Domain 0); inhibitor 100 uM", "text": "as §1"}, "kinases of Table 5 [7]": {"target": "kinases of Table 5 (Homo sapiens, UniProt P37173)", "sequence (P37173 23-567)": "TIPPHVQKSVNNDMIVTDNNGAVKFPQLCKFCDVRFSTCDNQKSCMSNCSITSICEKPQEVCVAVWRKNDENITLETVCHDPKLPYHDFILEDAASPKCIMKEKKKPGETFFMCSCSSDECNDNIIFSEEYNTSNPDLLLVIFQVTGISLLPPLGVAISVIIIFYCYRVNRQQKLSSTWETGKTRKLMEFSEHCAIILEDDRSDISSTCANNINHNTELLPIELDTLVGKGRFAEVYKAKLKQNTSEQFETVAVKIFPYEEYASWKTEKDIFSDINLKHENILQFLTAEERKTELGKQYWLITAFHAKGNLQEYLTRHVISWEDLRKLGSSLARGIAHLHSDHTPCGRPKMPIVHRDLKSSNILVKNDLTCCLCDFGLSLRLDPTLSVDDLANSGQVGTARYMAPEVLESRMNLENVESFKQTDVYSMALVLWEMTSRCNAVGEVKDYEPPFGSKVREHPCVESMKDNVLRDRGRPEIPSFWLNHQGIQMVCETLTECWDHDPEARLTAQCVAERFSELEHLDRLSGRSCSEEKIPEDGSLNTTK", "settings": "kinase TGFBR2 (Part I, plate C7, Domain 1); inhibitor 100 uM", "text": "as §1"}, "kinases of Table 5 [8]": {"target": "kinases of Table 5 (Homo sapiens, UniProt P16591)", "sequence (P16591 whole entry)": "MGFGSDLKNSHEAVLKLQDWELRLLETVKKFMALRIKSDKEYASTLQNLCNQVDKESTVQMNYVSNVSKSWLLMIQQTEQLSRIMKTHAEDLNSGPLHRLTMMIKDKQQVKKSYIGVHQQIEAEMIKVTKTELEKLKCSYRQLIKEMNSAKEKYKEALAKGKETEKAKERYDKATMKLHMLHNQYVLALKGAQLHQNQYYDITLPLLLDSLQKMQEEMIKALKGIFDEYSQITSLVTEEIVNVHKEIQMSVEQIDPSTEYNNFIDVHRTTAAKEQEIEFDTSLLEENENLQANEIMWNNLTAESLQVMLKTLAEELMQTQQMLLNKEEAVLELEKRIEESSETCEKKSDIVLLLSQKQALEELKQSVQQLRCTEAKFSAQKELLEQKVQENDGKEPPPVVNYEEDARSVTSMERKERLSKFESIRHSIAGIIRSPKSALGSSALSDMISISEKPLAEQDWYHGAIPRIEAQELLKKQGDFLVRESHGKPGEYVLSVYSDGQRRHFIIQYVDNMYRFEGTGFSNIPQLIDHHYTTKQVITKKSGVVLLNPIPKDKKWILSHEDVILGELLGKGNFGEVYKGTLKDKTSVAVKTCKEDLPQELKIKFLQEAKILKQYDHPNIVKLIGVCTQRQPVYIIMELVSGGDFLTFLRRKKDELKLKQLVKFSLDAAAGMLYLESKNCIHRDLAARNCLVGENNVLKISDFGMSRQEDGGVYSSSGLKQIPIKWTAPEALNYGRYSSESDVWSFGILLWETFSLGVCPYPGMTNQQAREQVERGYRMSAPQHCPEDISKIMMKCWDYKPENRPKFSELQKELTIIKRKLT", "settings": "kinase FER (Part II, plate H5, Domain 1); inhibitor 100 uM", "text": "as §1"}, "kinases of Table 5 [9]": {"target": "T1, kinases of Table 5 (Homo sapiens, UniProt O14965)", "T1 sequence (O14965 1-403)": "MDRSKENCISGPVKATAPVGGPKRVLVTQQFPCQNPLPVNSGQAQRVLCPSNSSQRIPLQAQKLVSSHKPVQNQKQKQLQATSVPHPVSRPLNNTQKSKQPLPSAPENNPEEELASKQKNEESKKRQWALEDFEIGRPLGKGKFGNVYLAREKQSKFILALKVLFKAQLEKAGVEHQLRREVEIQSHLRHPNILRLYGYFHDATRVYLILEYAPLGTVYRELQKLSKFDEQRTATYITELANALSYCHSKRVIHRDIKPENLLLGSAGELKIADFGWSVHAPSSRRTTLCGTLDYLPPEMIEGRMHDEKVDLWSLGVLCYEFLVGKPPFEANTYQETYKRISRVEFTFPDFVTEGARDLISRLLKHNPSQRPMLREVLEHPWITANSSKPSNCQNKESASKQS", "settings": "kinase STK6 (Part I, plate C6, Domain 1); inhibitor 100 uM", "text": "as §1"}, "kinases of Table 5 [10]": {"target": "kinases of Table 5 (Homo sapiens, UniProt Q9Y6E0)", "settings": "kinase STK24 (Part II, plate F11, Domain 0); inhibitor 100 uM", "text": "as §1"}, "kinases of Table 5 [11]": {"target": "kinases of Table 5 (Homo sapiens, UniProt P21802)", "sequence (P21802 22-821)": "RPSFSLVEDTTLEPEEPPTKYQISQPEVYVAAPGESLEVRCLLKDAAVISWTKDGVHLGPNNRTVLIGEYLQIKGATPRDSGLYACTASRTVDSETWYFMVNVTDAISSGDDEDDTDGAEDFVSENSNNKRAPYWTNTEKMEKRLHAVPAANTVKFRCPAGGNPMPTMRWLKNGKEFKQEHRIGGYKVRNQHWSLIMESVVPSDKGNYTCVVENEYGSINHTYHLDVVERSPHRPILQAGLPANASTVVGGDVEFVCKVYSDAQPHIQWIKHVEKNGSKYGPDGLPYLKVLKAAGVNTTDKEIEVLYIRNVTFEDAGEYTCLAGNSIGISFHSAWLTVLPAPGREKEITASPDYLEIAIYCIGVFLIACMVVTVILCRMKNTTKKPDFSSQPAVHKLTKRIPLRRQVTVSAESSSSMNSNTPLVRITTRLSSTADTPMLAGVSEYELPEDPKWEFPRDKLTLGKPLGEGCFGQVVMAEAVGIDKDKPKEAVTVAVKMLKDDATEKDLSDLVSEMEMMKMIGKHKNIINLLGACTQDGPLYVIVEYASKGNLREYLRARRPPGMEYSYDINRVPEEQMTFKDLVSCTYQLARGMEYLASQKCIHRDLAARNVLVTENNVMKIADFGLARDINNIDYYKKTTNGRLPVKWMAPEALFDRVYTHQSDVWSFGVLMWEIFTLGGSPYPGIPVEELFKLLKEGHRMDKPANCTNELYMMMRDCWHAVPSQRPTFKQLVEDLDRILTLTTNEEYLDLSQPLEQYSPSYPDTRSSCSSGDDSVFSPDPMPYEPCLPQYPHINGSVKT", "settings": "inhibitor 100 uM", "text": "as §1"}, "kinases of Table 5 [12]": {"target": "T2, kinases of Table 5 (Homo sapiens, UniProt Q13043)", "T2 sequence (Q13043 1-487)": "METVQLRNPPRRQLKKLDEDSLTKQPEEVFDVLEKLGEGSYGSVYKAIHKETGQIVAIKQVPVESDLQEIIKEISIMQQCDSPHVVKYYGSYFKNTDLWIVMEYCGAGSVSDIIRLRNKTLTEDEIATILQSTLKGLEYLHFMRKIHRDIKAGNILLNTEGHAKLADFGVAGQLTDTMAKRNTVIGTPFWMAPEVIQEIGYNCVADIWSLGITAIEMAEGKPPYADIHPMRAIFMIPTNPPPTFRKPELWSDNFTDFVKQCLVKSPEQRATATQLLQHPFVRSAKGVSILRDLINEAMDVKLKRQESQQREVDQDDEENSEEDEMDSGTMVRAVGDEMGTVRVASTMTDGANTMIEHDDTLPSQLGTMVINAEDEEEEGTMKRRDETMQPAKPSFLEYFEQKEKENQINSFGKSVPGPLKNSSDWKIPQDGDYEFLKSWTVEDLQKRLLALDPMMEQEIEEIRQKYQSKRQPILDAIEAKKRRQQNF", "settings": "kinase STK4 (Part II, plate D6, Domain 1); inhibitor 100 uM", "text": "as §1"}, "kinases of Table 5 [13]": {"target": "kinases of Table 5 (Homo sapiens, UniProt Q05655)", "sequence (Q05655 whole entry)": "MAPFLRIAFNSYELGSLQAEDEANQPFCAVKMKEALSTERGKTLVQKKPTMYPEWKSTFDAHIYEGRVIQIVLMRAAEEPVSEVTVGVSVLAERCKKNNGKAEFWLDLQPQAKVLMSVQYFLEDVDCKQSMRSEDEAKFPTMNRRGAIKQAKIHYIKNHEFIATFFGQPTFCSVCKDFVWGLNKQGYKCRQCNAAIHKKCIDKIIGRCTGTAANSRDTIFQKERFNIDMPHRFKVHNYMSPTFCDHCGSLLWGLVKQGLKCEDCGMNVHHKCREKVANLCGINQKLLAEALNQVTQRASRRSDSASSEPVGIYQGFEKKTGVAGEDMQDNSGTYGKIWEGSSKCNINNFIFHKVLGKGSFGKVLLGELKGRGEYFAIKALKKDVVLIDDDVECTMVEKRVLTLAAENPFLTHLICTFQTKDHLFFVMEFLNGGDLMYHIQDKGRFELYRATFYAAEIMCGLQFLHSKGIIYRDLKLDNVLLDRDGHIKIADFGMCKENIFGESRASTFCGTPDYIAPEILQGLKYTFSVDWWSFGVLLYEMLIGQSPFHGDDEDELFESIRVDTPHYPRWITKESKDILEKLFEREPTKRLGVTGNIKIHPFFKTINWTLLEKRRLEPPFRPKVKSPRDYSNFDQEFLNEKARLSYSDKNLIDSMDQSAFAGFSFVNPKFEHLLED", "settings": "kinase PRKCD (Part II, plate B2, Domain 0); inhibitor 100 uM", "text": "as §1"}, "kinases of Table 5 [14]": {"target": "kinases of Table 5 (Homo sapiens, UniProt Q13627)", "settings": "kinase DYRK1A (Part I, plate G6, Domain 1); inhibitor 100 uM", "text": "as §1"}, "kinases of Table 5 [15]": {"target": "kinases of Table 5 (Homo sapiens, UniProt P07949)", "sequence (P07949 29-1114)": "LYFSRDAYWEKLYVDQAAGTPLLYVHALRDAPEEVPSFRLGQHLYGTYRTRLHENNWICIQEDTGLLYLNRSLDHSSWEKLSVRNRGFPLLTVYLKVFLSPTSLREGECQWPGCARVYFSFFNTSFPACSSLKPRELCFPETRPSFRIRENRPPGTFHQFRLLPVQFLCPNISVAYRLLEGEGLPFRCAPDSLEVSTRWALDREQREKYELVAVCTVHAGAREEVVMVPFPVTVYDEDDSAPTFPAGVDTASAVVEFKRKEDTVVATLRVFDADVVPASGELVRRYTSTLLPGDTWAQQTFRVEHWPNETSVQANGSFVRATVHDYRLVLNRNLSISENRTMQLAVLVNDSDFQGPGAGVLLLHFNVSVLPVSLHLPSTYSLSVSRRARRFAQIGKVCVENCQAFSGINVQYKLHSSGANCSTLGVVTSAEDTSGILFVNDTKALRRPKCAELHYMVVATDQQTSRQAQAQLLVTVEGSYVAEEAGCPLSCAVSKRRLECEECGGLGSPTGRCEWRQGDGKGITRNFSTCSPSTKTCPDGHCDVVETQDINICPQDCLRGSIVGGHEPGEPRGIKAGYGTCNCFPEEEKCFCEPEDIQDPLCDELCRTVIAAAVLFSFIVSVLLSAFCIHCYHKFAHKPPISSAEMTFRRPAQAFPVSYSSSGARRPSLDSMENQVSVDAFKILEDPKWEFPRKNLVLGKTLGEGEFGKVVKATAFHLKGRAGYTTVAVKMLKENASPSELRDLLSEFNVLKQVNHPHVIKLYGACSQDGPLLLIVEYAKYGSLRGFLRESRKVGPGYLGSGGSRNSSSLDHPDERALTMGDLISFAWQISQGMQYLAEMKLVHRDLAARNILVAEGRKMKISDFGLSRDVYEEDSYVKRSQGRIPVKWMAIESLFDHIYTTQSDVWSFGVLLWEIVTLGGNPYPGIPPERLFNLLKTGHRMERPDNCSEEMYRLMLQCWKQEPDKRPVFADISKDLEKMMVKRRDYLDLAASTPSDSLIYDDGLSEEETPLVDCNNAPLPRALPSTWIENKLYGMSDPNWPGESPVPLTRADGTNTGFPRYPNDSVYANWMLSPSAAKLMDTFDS", "settings": "kinase RET (Part II, plate B7, Domain 1); inhibitor 100 uM", "text": "as §1"}}, "data": [{"smiles": "CC(=O)c1c(O)c(C)c(O)c(Cc2c(O)c3c(c(C(=O)/C=C/c4ccccc4)c2O)OC(C)(C)C=C3)c1O", "note": "[Rottlerin (Mallotoxin)]", "values": [{"measurement": "Inhibition Results (Level)", "setting": "kinases of Table 5 [1]", "value": 1}, {"measurement": "Inhibition Results (Level)", "setting": "kinases of Table 5 [2]", "value": 0}, {"measurement": "Inhibition Results (Level)", "setting": "kinases of Table 5 [3]", "value": 2}, {"measurement": "Inhibition Results (Level)", "setting": "kinases of Table 5 [4]", "value": 2}, {"measurement": "Inhibition Results (Level)", "setting": "kinases of Table 5 [5]", "value": 2}, {"measurement": "Inhibition Results (Level)", "setting": "kinases of Table 5 [6]", "value": 2}, {"measurement": "Inhibition Results (Level)", "setting": "kinases of Table 5 [7]", "value": 2}, {"measurement": "Inhibition Results (Level)", "setting": "kinases of Table 5 [8]", "value": 2}, {"measurement": "Inhibition Results (Level)", "setting": "kinases of Table 5 [9]", "value": 2}, {"measurement": "Inhibition Results (Level)", "setting": "kinases of Table 5 [10]", "value": 1}, {"measurement": "Inhibition Results (Level)", "setting": "kinases of Table 5 [11]; kinase FGFR2 (Part I, plate G8, Domain 1)", "value": 2}, {"measurement": "Inhibition Results (Level)", "setting": "kinases of Table 5 [11]; kinase FGFR2 (Part II, plate B4, Domain 1)", "value": 0}, {"measurement": "Inhibition Results (Level)", "setting": "kinases of Table 5 [12]", "value": 0}, {"measurement": "Inhibition Results (Level)", "setting": "kinases of Table 5 [13]", "value": 0}, {"measurement": "Inhibition Results (Level)", "setting": "kinases of Table 5 [14]", "value": 0}, {"measurement": "Inhibition Results (Level)", "setting": "kinases of Table 5 [15]", "value": 0}]}]}
